{"source": "patent US9757379B2", "about": "“Inhibition of HIF-2α heterodimerization with HIF1β (ARNT)” (The Board of Regents of the University of Texas System, priority 2012, dated 2017)", "key": {"HIF-1α": {"molecular_target": "T1, HIF-1α (Homo sapiens, UniProt Q16665)", "T1 construct": "endogenous in cells", "T1 sequence (Q16665 whole entry)": "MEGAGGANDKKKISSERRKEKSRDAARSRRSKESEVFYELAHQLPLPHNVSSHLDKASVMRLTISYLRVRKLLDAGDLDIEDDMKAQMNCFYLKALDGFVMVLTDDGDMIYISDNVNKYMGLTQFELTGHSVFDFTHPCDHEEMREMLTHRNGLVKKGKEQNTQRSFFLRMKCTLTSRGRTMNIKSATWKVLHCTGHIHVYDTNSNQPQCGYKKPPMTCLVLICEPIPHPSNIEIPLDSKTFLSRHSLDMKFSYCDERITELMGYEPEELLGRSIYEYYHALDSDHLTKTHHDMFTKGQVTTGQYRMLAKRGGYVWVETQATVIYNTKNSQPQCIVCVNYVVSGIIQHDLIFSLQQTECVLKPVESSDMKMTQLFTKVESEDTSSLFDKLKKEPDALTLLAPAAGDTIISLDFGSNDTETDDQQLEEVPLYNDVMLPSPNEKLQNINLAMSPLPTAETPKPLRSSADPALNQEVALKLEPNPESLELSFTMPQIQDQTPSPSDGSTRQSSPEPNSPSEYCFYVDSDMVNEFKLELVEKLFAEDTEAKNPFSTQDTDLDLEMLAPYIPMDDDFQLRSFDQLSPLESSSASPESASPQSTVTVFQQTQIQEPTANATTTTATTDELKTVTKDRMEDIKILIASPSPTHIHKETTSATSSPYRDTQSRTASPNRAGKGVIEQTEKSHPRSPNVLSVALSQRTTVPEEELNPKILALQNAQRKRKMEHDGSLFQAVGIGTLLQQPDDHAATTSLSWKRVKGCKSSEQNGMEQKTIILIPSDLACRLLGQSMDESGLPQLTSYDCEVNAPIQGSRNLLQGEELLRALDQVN", "T1 sequence (P27540 2-789 partner limits assumed)": "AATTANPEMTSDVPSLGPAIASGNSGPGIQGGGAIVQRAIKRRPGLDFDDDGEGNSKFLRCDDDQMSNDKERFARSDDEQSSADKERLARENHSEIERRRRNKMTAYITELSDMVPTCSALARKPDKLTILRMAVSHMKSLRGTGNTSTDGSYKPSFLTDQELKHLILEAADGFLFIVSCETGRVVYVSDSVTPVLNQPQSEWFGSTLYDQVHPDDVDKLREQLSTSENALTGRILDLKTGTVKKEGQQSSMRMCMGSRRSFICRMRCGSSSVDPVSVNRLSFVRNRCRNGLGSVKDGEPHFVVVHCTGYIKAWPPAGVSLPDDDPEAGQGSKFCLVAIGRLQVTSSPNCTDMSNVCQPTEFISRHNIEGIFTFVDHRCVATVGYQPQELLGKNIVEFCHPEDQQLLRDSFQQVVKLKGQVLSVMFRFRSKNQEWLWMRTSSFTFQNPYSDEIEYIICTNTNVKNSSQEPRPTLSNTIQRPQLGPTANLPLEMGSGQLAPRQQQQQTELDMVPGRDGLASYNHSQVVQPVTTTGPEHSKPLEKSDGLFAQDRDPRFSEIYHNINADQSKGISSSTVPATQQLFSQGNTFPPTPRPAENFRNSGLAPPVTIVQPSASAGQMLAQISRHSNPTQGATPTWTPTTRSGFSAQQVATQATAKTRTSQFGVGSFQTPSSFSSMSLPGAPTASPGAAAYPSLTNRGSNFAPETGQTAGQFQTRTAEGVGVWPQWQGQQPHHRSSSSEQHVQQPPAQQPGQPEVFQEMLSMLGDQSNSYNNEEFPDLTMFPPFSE", "experiment": "ChIP, HIF-1α DNA binding in cultured cells", "assay_type": "cell-based", "conditions": "10 μM, hypoxic conditions", "experimental": "(§1) Chromatin immunoprecipation (ChIP) using antibodies raised against HIF-1α or HIF-2α was used to measure HIF DNA binding in cultured cells.\n(§2) Proc Natl Acad Sci USA 106, 4260-4265 (2009) using the ChIP-IT Express Enzymatic Kit (Active Motif) according to the manufacturer's protocol. ChIP assays were carried out using normal mouse IgG (Santa Cruz Biotechnology), anti-HIF-2α mouse monoclonal antibody (Novus Biologicals), or anti-HIF-1α mouse monoclonal antibody (BD Biosciences). The precipitated genomic DNA was analyzed by qPCR using the primers for a human EPO enhancer amplicon ([…]; […]). The captured genomic DNA was measured by normalizing with that of input material and compared between sample."}, "HIF-2α [1]": {"system": "HIF-2α", "experiment": "ChIP, HIF-2α DNA binding in cultured cells", "assay_type": "cell-based, human", "conditions": "10 μM, hypoxic conditions", "experimental": "as §1, §2"}, "PGK1": {"system": "PGK1", "experiment": "PGK1 mRNA expression in Hep3B cells (HIF-1α marker)", "assay_type": "cell-based", "conditions": "1 or 10 μM, hypoxic (1% O2) 6 or 12 hr"}, "HIF-1α PAS-B": {"molecular_target": "HIF-1α PAS-B (Homo sapiens, UniProt Q16665)", "sequence (Q16665 238-349)": "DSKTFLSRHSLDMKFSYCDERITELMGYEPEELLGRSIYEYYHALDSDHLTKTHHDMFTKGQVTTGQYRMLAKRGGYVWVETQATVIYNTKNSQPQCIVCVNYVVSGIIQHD", "experiment": "Isothermal titration calorimetry (ITC) on HIF-1α PAS-B", "assay_type": "binding", "conditions": "same conditions as for HIF-2α PAS-B", "from_the_text": "(§3) Ensuing allosteric conformational changes propagate to the surface of the domain, weakening interactions with the ARNT PAS-B domain and disrupting heterodimerization of the full length HIF-2 transcription factor."}, "[2]": {"molecular_target": "HIF-2α PAS-B*/ARNT PAS-B* heterodimer (Homo sapiens, UniProt Q99814, R247E)", "sequence (Q99814 240-350 R247E, one chain of several)": "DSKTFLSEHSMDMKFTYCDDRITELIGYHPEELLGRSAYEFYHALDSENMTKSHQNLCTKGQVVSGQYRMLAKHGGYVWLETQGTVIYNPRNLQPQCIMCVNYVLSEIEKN", "experiment": "AlphaScreen, HIF-2α PAS-B*/ARNT PAS-B* heterodimerization", "quoted_text": "(FIG. 8a) As shown in the cartoon schematic, interactions between GST-tagged HIF-2α (green) and FLAG-tagged ARNT (blue) PAS-B* domains recruit both donor beads (D), coated with glutathione, and acceptor beads (A), coated with anti-FLAG antibodies, to one another. Upon illumination with red (680 nm) light, donor beads will generate short-lived singlet oxygen (^1O2). Nearby (<200 nm) acceptor beads can react with ^1O2 to emit light at shorter wavelengths (top). Compounds that disrupt the complex correspondingly eliminate this signal (bottom). Compounds that non-specifically interfere with the AlphaScreen assay can be identified with a counterscreen in which the ARNT PAS-B* domain was simultaneously tagged with both the GST and FLAG tags. (FIG. 8b) The AlphaScreen signal (relative units; RU) reflecting protein-protein interactions between 25 (open triangles), 50 (open circles) or 100 (closed circles) nM HIF-2α PAS-B* increases with increasing concentrations of ARNT PAS-B*. At the highest ARNT PAS-B* concentrations, a decrease in signal reflects the hook effect. At these concentrations, protein binding to the acceptor beads has become saturated and free ARNT PAS-B* competes with the coated acceptor beads for the donor beads bound to HIF-2α PAS-B*. […] Assays were performed in triplicate and the error bars represent±SD.\nInhibition of heterodimerization of HIF-2α to HIF1β (ARNT) may be determined in an Amplified Luminescent Proximity Homogeneous Assay (AlphaScreen).\nThe AlphaScreen assay can be done according to the following procedures: • 1. Prepare cold binding buffer solution: 20 mM Tris-Cl (pH=7.5), 100 mM NaCl, 1 mM DTT, 0.02% Tween-20 (final concentration) and place on ice to keep temperature approximately 4° C. • 2. Prepare Protein Mix: To a 50 mL conical tube add 23 mL of cold buffer and 0.04 mL of both GST-HIF2α PASB* (100 μM) and ARNT-PASB*-Flag (100 μM). • 3. Distribute to 96 well plate: Add 60 μL of protein mix to each wells. • 4. Adding Compound: Dissolve compounds in DMSO to obtain a final concentration of 10 mM. Then create the appropriate dilutions for your particular compound in glass vials. Once all the dilutions are ready place 1 μL of compound in each well. • 5. Prepare Bead mix: In the dark room using green light only create a tube with 3.84 mL of cold buffer and 3 μL of GST Donor beads and Flag acceptor beads. • 6. Distribute Bead mix: Invert the tube a couple times before distributing 40 μL of mix to each well. • 7. Incubation: After adding beads wrap the plate in tin foil twice and remove the covered plate from dark room. Incubate the plate at room temperature while rocking gently for 4 hours. • 8. Read: After 4 hours place the uncovered plate in the plate reader. Make sure the room is relatively tree of white light when placing the plate in the machine. It is ok to have the green light on if needed. • 9. […] Flag acceptor beads should be aliquoted into small opaque tubes (20-50 μl per tube) upon arrival from the manufacturer. Place both sets of beads in 4° C. storage when not in use. • 11. Avoid expose beads to white light. • 12. Pipette beads up and down several times before adding to a tube of cold buffer solution. • 13. Amount of Beads used for Bead mix may vary from batch to batch."}, "VEGF [3]": {"system": "VEGF", "experiment": "HIF-2 target gene (VEGF) expression in 786-0 cells, RT-PCR", "assay_type": "cell-based, human", "conditions": "18 hr", "from_the_text": "(§4) 786-0 cells, derived from a human renal cell carcinoma, lack functional pVHL and constitutively accumulate HIF-2α under normoxic conditions. These cells also lack detectable HIF-1α expression so that HIF-dependent regulation of target genes is attributable to HIF-2α isoform."}, "HIF-1 heterodimerization": {"molecular_target": "T2, HIF-1 heterodimerization (Homo sapiens, UniProt Q16665)", "T2 construct": "Nuclear extracts prepared from hypoxic Hep3B cells expressing ARNT, HIF-1α, and HIF-2α (input); endogenous in cells; host or cells: Hep3B (hypoxic), nuclear extracts", "T2 sequence (Q16665 whole entry)": "as the sequence (Q16665 whole entry) above", "T2 sequence (P27540 2-789 partner limits assumed)": "as the sequence (P27540 2-789 partner limits assumed) above", "experiment": "Co-IP of HIF-1α with ARNT, nuclear extracts of hypoxic Hep3B cells", "assay_type": "biochemical", "conditions": "increasing amounts", "from_the_text": "as §3"}, "786-0 cells": {"system": "786-0 cells", "experiment": "Cell viability, ATP levels by Cell Titer Glo", "assay_type": "cell-based, human", "conditions": "24 hr, as much as 30 μM", "experimental": "Assays were performed in triplicates and the error bars represent±SD.\nas §4"}, "HIF-2α [4]": {"system": "HIF-2α", "experiment": "HIF-2α expression in 786-0 cells (RT-PCR, immunoblot)", "assay_type": "cell-based, human", "conditions": "normoxic 786-0 cells", "from_the_text": "as §4"}, "EPO": {"system": "EPO", "experiment": "EPO mRNA expression in Hep3B cells (HIF-2α marker)", "assay_type": "cell-based", "conditions": "1 or 10 μM, hypoxic (1% O2) 6 or 12 hr"}, "HIF-2α or HIF-1α mRNA": {"system": "HIF-2α or HIF-1α mRNA", "experiment": "HIF-1α and HIF-2α mRNA levels in Hep3B cells, RT-PCR", "assay_type": "cell-based"}, "[5]": {"molecular_target": "T3, full length HIF-2α and ARNT (Homo sapiens, UniProt Q99814)", "T3 construct": "heterodimerization between full length HIF-2α and ARNT polypeptides; endogenous in cells; host or cells: Hep3B (hypoxic), nuclear extracts", "experiment": "Co-IP of HIF-2α with ARNT, nuclear extracts of hypoxic Hep3B cells", "assay_type": "biochemical", "conditions": "increasing concentrations", "method": "An antibody recognizing the N-terminus of ARNT, was used to immunoprecipitate (IP) the endogenous ARNT protein from the nuclear extracts (FIG. 17 b; top panel).\nCo-IP: Nuclear protein extraction and co-IP experiments were performed as reported in Semenza, G. L. Hypoxia-inducible factors: mediators of cancer progression and targets for cancer therapy. […] The following antibodies were used for immunoblot analysis: anti-HIF-1α mouse monoclonal antibody (BD Biosciences); anti-EPAS/HIF-2α mouse monoclonal antibody (Novus Biological); anti-ARNT/HIF-1β mouse monoclonal antibody (Novus Biological)."}, "GST-ARNT-PAS-B*-FLAG": {"molecular_target": "GST-ARNT-PAS-B*-FLAG (Homo sapiens, UniProt P27540, E362R)", "sequence (P27540 355-470 E362R)": "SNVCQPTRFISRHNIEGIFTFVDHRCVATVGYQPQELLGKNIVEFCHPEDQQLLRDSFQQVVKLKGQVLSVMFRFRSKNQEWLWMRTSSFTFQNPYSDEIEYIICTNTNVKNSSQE", "experiment": "AlphaScreen control reaction with doubly tagged protein", "assay_type": "biochemical", "conditions": "single doubly tagged protein", "quoted_text": "Upon illumination with red (680 nm) light, donor beads will generate short-lived singlet oxygen (^1O2). Nearby (<200 nm) acceptor beads can react with ^1O2 to emit light at shorter wavelengths (top). Compounds that disrupt the complex correspondingly eliminate this signal (bottom). Compounds that non-specifically interfere with the AlphaScreen assay can be identified with a counterscreen in which the ARNT PAS-B* domain was simultaneously tagged with both the GST and FLAG tags. […] At these concentrations, protein binding to the acceptor beads has become saturated and free ARNT PAS-B* competes with the coated acceptor beads for the donor beads bound to HIF-2α PAS-B*. […] Assays were performed in triplicate and the error bars represent±SD."}, "VEGF [6]": {"system": "VEGF", "experiment": "VEGF protein secretion by ELISA, 786-O cells", "assay_type": "cell-based, human", "conditions": "about 18 hours, 0.00655-20 μM", "experimental": "VEGF protein secretion was measured by ELISA following incubation of cultured 786-O cells for about eighteen (18) hours with Compund (1) (FIG. 19a) or with Compound (47) (FIG. 19b)."}}, "note": "“Also recorded” adds a separate entry of the source.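 Wherever Effect on HIF-2α/ARNT PAS-B* heterodimerization in AlphaScreen is given: GST-tagged HIF-2α PAS-B* and FLAG-tagged ARNT PAS-B* with glutathione donor and anti-FLAG acceptor beads, luminescence after 680 nm excitation, loss of signal indicating disrupted heterodimer.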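 Wherever IC50 is given: GST-tagged HIF-2α PAS-B* and FLAG-tagged ARNT PAS-B* with glutathione donor and anti-FLAG acceptor beads, luminescence after 680 nm excitation, loss of signal indicating disrupted heterodimer.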"}
{"compound": "O=[N+]([O-])c1c(Nc2cc(F)cc(Cl)c2)ccc2nonc12", "note": "[Compound 1, N-(3-chloro-5-fluorophenyl)-4-nitrobenzo[c][1,2,5]oxadiazol-5-amine]", "values": [{"measurement": "HIF-1α DNA-binding activity (ChIP)", "setting": "HIF-1α", "result": "unaffected"}, {"measurement": "HIF-2α DNA-binding activity (ChIP)", "setting": "HIF-2α [1]", "result": "substantially decreased; also recorded: selectively disrupts"}, {"measurement": "Expression of PGK1", "setting": "PGK1", "result": "no effect"}, {"measurement": "ITC protein-ligand interaction, HIF-1α PAS-B", "setting": "HIF-1α PAS-B", "result": "effectively does not bind; also recorded: does not show detectable protein-ligand interaction"}, {"measurement": "Kd", "setting": "HIF-1α PAS-B", "result": "> 5000", "unit": "nM"}, {"measurement": "IC50", "setting": "[2]", "result": 100, "unit": "nM"}, {"measurement": "Effect on HIF-2α/ARNT PAS-B* heterodimerization in AlphaScreen", "setting": "[2]; triplicate", "result": "blocks heterodimer assembly"}, {"measurement": "Expression of HIF-2 target gene (VEGF)", "setting": "VEGF [3]", "result": "reduced in a dose-dependent manner; also recorded: antagonized"}, {"measurement": "Effect on HIF-1 heterodimerization by Co-IP", "setting": "HIF-1 heterodimerization", "result": "little effect"}, {"measurement": "Toxicity to cultured cells (ATP levels as cell viability)", "setting": "786-0 cells", "result": "No overt toxicity; also recorded: not overtly toxic"}, {"measurement": "Effect on HIF-2α expression (mRNA, protein)", "setting": "HIF-2α [4]", "result": "does not alter; also recorded: no effect"}, {"measurement": "Hypoxic induction of EPO mRNA", "setting": "EPO", "result": "antagonized"}, {"measurement": "HIF-1α and -2α mRNA levels", "setting": "HIF-2α or HIF-1α mRNA", "result": "no effect"}, {"measurement": "Heterodimerization of full length HIF-2 transcription factor (co-IP)", "setting": "[5]", "result": "disrupts heterodimerization"}, {"measurement": "Effect on AlphaScreen signal of control reaction", "setting": "GST-ARNT-PAS-B*-FLAG", "result": "No effect"}, {"measurement": "VEGF protein secretion", "setting": "VEGF [6]", "result": "reduce VEGF protein secretion in a dose-dependent manner"}]}
